Laboratory results reported in paper PMC7031696 (Cell chemical biology, 2019).
Like-named read-outs stand apart in the source and are kept apart here.

Legend:
[1] = test system: asynchronous 3D7-A10 parasite cultures; assay: Standard 72-h exposure asexual blood stage susceptibility assay (IC50^72h); type: cell-based, Plasmodium falciparum; conditions: Plasmodium falciparum, 3D7, 72 h, read-out: Overall (72hr assay) Mean IC50 (IC50^72h)
[2] = test system: 3D7-MR4 trophozoite parasite-infected RBCs; assay: Metabolomic profiling (hydrophilic metabolite changes, UHPLC-MS); type: cell-based, Plasmodium falciparum
[3] = test system: Plasmodium falciparum 3D7-A10 parasites; assay: Stage specificity assay (8-h exposure of synchronized stages, IC50^8h); type: cell-based; conditions: for IC50: Plasmodium falciparum

IC50 [1]: 0.0118 µM
Ratio lowest IC50 8hr/IC50 72hr ([3]; 3D7-A10): 3.9
IC50 ([3]; 3D7, read-out: Early rings Mean IC50, shift 2, 8-h exposure 0–8 hr, line 'shift 2'): 16.3 µM
IC50 ([3]; 3D7, read-out: Early trophozoites Mean IC50, shift 2, 8-h exposure 16–24 hr, line 'shift 2' of biphasic dose response): 5.14 µM
IC50 ([3]; 3D7, read-out: Late rings Mean IC50, shift 2, 8-h exposure 8–16 hr, line 'shift 2'): 14 µM
IC50 ([3]; 3D7, read-out: Late trophozoites Mean IC50, shift 1, 8-h exposure 24–32 hr, line 'shift 1' of biphasic dose response): 0.161 µM
IC50 ([3]; 3D7, read-out: Late trophozoites Mean IC50, shift 2, 8-h exposure 24–32 hr, line 'shift 2' of biphasic dose response): 13.4 µM
IC50 ([3]; 3D7, read-out: Schizonts Mean IC50, shift 2, 8-h exposure 32–40 hr, line 'shift 2'): 0.0462 µM
Structure (SMILES): CN(C(=O)c1cn2c(-c3ccc(C(F)(F)F)cc3)cnc2cn1)c1ccc(C#N)cc1 [KAI407, reference compound]
Log2(fold changes) 3-phosphoglycerate ([2]; metabolite 3-phosphoglycerate, log2 fold change): -0.5235
Log2(fold changes) 4-Pyridoxic acid ([2]; metabolite 4-Pyridoxic acid, log2 fold change): 0.0000
Log2(fold changes) 4-aminobutyrate ([2]; metabolite 4-aminobutyrate, log2 fold change): -0.0697
Log2(fold changes) 4-phosphopantetheine ([2]; metabolite 4-phosphopantetheine, log2 fold change): -0.3259
Log2(fold changes) 4-phosphopantothenate ([2]; metabolite 4-phosphopantothenate, log2 fold change): -0.0998
Log2(fold changes) 5-aminopentanoic acid ([2]; metabolite 5-aminopentanoic acid, log2 fold change): 0.0000
Log2(fold changes) 5-methyl-THF ([2]; metabolite 5-methyl-THF, log2 fold change): 0.0000
Log2(fold changes) 5-phosphoribosyl-1-pyrophosphate ([2]; metabolite 5-phosphoribosyl-1-pyrophosphate, log2 fold change): 0.0000
Log2(fold changes) 6-phospho-D-gluconate ([2]; metabolite 6-phospho-D-gluconate, log2 fold change): -0.0493
Log2(fold change) HVDD ([2]; metabolite HVDD): 0.0000
Log2(fold change) Hydroxyisocaproic acid ([2]; metabolite Hydroxyisocaproic acid): 0.0000
Log2(fold change) IDP ([2]; metabolite IDP): -0.1372
Log2(fold change) IMP ([2]; metabolite IMP): 0.0398
Log2(fold change) Inositol ([2]; metabolite Inositol): 0.0000
Log2(fold change) Isopentyl-PP ([2]; metabolite Isopentyl-PP): 0.0000
Log2(fold change) L-arginino-succinate ([2]; metabolite L-arginino-succinate): 0.0109
Log2(fold change) LD ([2]; metabolite LD): 0.0079
Log2(fold change) Myristoyl/tetradecanoyl-CoA ([2]; metabolite Myristoyl/tetradecanoyl-CoA): 0.0000
Log2(fold change) N-Acetyl-L-alanine ([2]; metabolite N-Acetyl-L-alanine): 0.0065
Log2(fold change) N-acetyl-L-ornithine ([2]; metabolite N-acetyl-L-ornithine): -0.3674
Log2(fold change) N-acetyl-glucosamine-1/6-phosphate ([2]; metabolite N-acetyl-glucosamine-1/6-phosphate): -0.2974
Log2(fold change) N-acetyl-glutamate ([2]; metabolite N-acetyl-glutamate): -0.1156
Log2(fold change) N-acetyl-glutamine ([2]; metabolite N-acetyl-glutamine): -0.4039
Log2(fold change) N-carbamoyl-L-aspartate ([2]; metabolite N-carbamoyl-L-aspartate): -0.0890
Log2(fold change) NAD+ ([2]; metabolite NAD+): -0.0062
Log2(fold change) NADH ([2]; metabolite NADH): 0.3557
Log2(fold change) NADP+ ([2]; metabolite NADP+): 0.1126
Log2(fold change) NADPH ([2]; metabolite NADPH): 0.1591
Log2(fold change) O-acetyl-L-serine ([2]; metabolite O-acetyl-L-serine): 0.0000
Log2(fold change) Octoluse 8/1P ([2]; metabolite Octoluse 8/1P): -0.0134
Log2(fold change) Octoluse Bisphosphate ([2]; metabolite Octoluse Bisphosphate): -0.3290
Log2(fold change) PD ([2]; metabolite PD): -0.6855
Log2(fold change) PE ([2]; metabolite PE): -0.6905
Log2(fold change) PEE ([2]; metabolite PEE): -0.7885
Log2(fold change) PEEK ([2]; metabolite PEEK): -0.8519
Log2(fold change) PVNF ([2]; metabolite PVNF): -0.9231
Log2(fold change) Pyroglutamic acid ([2]; metabolite Pyroglutamic acid): -0.1373
Log2(fold change) Pyrophosphate ([2]; metabolite Pyrophosphate): 0.0000
Log2(fold change) Ribose-5-phosphate ([2]; metabolite Ribose-5-phosphate): -0.3312
Log2(fold change) S-adenosyl-L-homocysteine ([2]; metabolite S-adenosyl-L-homocysteine): -0.0194
Log2(fold change) S-adenosyl-L-methioninamine ([2]; metabolite S-adenosyl-L-methioninamine): 0.0000
Log2(fold change) S-adenosyl-L-methionine ([2]; metabolite S-adenosyl-L-methionine): 0.0000
Log2(fold change) S-methyl-5'-thioadenosine ([2]; metabolite S-methyl-5'-thioadenosine): 0.0000
Log2(fold change) SD ([2]; metabolite SD): -0.4923
Log2(fold change) SDL ([2]; metabolite SDL): 0.0000
Log2(fold change) SID ([2]; metabolite SID): 0.0000
Log2(fold change) Sedoheptulose bisphosphate ([2]; metabolite Sedoheptulose bisphosphate): -0.3584
Log2(fold change) Thiamine pyrophosphate ([2]; metabolite Thiamine pyrophosphate): 0.0000
Log2(fold changes) UDP-D-glucose ([2]; metabolite UDP-D-glucose, log2 fold change): 0.1494
Log2(fold changes) UDP-D-glucuronate ([2]; metabolite UDP-D-glucuronate, log2 fold change): 0.0070
Log2(fold changes) UDP-N-acetyl-glucosamine ([2]; metabolite UDP-N-acetyl-glucosamine, log2 fold change): 0.1156
Log2(fold changes) UDP ([2]; metabolite UDP, log2 fold change): 0.2283
Log2(fold changes) UMP ([2]; metabolite UMP, log2 fold change): 0.2317
Log2(fold changes) UTP ([2]; metabolite UTP, log2 fold change): 0.2213
Log2(fold change) hydroxyphenylpyruvate ([2]; metabolite hydroxyphenylpyruvate): 0.0000
Log2(fold change) hydroxyproline/Aminolevulinate ([2]; metabolite hydroxyproline/Aminolevulinate): -0.0075
Log2(fold change) hypoxanthine ([2]; metabolite hypoxanthine): 0.1648
Log2(fold change) indole ([2]; metabolite indole): 0.3490
Log2(fold change) inosine ([2]; metabolite inosine): -0.0766
Log2(fold change) isoleucine ([2]; metabolite isoleucine): 0.0000
Log2(fold change) lactate ([2]; metabolite lactate): -0.2025
Log2(fold change) leucine ([2]; metabolite leucine): 0.0000
Log2(fold change) lysine ([2]; metabolite lysine): -0.5734
Log2(fold change) malate ([2]; metabolite malate): -0.3950
Log2(fold change) maleic acid ([2]; metabolite maleic acid): -0.3624
Log2(fold change) methionine ([2]; metabolite methionine): 0.0256
Log2(fold change) myo-inositol ([2]; metabolite myo-inositol): -0.1977
Log2(fold change) nicotinamide mononucleotide ([2]; metabolite nicotinamide mononucleotide): 0.0000
Log2(fold change) nicotinate ([2]; metabolite nicotinate): -0.1013
Log2(fold change) ornithine ([2]; metabolite ornithine): -0.1781
Log2(fold change) orotate ([2]; metabolite orotate): 0.2133
Log2(fold change) orotidine-5'-phosphate ([2]; metabolite orotidine-5'-phosphate): 0.1629
Log2(fold change) oxaloacetate ([2]; metabolite oxaloacetate): 0.0000
Log2(fold change) p-aminobenzoate ([2]; metabolite p-aminobenzoate): -0.0216
Log2(fold change) p-hydroxybenzoate ([2]; metabolite p-hydroxybenzoate): 0.3646
Log2(fold change) pantothenate ([2]; metabolite pantothenate): -0.2828
Log2(fold change) phenylalanine ([2]; metabolite phenylalanine): -0.1837
Log2(fold change) phenylpyruvate ([2]; metabolite phenylpyruvate): 0.0000
Log2(fold change) phosphoenolpyruvate ([2]; metabolite phosphoenolpyruvate): -0.3146
Log2(fold change) prephenate ([2]; metabolite prephenate): -0.3616
Log2(fold change) proline ([2]; metabolite proline): -0.1191
Log2(fold change) pyridoxine ([2]; metabolite pyridoxine): -0.0925
Log2(fold change) pyruvate ([2]; metabolite pyruvate): -0.4635
Log2(fold change) riboflavin ([2]; metabolite riboflavin): 0.1454
Log2(fold change) ribose ([2]; metabolite ribose): 0.2742
Log2(fold change) ribose-phosphate ([2]; metabolite ribose-phosphate): 0.0000
Log2(fold change) ribulose-5-phosphate ([2]; metabolite ribulose-5-phosphate): 0.0000
Log2(fold change) serine ([2]; metabolite serine): 0.1757
Log2(fold change) sn-glycerol-3-phosphate ([2]; metabolite sn-glycerol-3-phosphate): -0.3504
Log2(fold change) succinate/Methylmalonic acid ([2]; metabolite succinate/Methylmalonic acid): -0.0586
Log2(fold change) succinyl-CoA/methylmalonyl-CoA ([2]; metabolite succinyl-CoA/methylmalonyl-CoA): 0.0000
Log2(fold change) taurine ([2]; metabolite taurine): 0.0000
Log2(fold change) thiamine ([2]; metabolite thiamine): -0.0019
Log2(fold change) threonine/homoserine ([2]; metabolite threonine/homoserine): -0.0036
Log2(fold change) thymidine ([2]; metabolite thymidine): 0.0000
Log2(fold changes) thymine ([2]; metabolite thymine, log2 fold change): 0.0000
Log2(fold changes) trehalose-6-Phosphate ([2]; metabolite trehalose-6-Phosphate, log2 fold change): 0.0000
Log2(fold changes) tryptophan ([2]; metabolite tryptophan, log2 fold change): -0.0140
Log2(fold changes) tyrosine ([2]; metabolite tyrosine, log2 fold change): 0.0814
Log2(fold changes) uridine ([2]; metabolite uridine, log2 fold change): 0.2403
overall activity profile (stages on which active) ([3]; 8-h exposures): activity against only schizonts
Stage of peak activity (Figure 6) ([3]; period when the parasite was most susceptible (lowest IC50^8h)): schizonts
